Data reported in ChEMBL document CHEMBL4364264, “Tetrazole hybrids with potential anticancer activity” (Eur J Med Chem, 2019).
Converted amounts (≈) assume the structure as drawn.

Key:
HCT-116 [1] = assay: Cytotoxicity against human HCT116 cells; type: functional, cell-based
PC-3 [2] = assay: Cytotoxicity against human PC3 cells; type: functional, cell-based
PC-3 [3] = assay: cells; conditions: Homo sapiens, PC-3, 48 h
HT-29 = assay: cells; conditions: Homo sapiens, HT-29, 48 h
Description: Antiproliferative activity against human HT-29 cells after 48 hrs by MTT assay

MDA-MB-231 [4] = assay: Cytotoxicity against human MDA-MB-231 cells; type: functional
PANC-1 = assay: Cytotoxicity against human PANC1 cells; type: functional
SiHa = assay: Cytotoxicity against human SiHa cells; type: functional
Caco-2 = assay: Cytotoxicity against human Caco2 cells; type: functional, cell-based
SK-BR-3 = assay: Cytotoxicity against human SKBR3 cells; type: functional, cell-based
HeLa [5] = assay: Cytotoxicity against human HeLa cells; type: functional, cell-based
MCF7 [6] = assay: Cytotoxicity against human MCF7 cells; type: functional, cell-based
MCF7 [7] = assay: Growth inhibition of human MCF7 cells; type: functional
HeLa [8] = assay: Growth inhibition of human HeLa cells; type: functional
HepG2 [9] = assay: Growth inhibition of human HepG2 cells; type: functional
MCF7 [10] = assay: Growth inhibition of human MCF7 cells by microtiter plate assay; type: functional
MDA-MB-231 [11] = assay: Growth inhibition of human MDA-MB-231 cells by microtiter plate assay; type: functional
DU-145 = assay: Growth inhibition of human DU145 cells by microtiter plate assay; type: functional
HepG2 [12] = assay: Cytotoxicity against human HepG2 cells after 96 hrs by MTT assay; type: functional, cell-based; conditions: HepG2, 96 h
HCT-116 [13] = assay: Cytotoxicity against human HCT116 cells after 96 hrs by MTT assay; type: functional, cell-based; conditions: HCT-116, 96 h
HepG2 [14] = assay: Cytotoxicity against human HepG2 cells

Question: With COc1cc(/C=C/C(=O)c2ccc(C)cc2)ccc1Oc1nnnn1-c1ccccc1 as the molecule, how does the IC50 (HCT-116 [1]) read?
Answer: 2.5 to 7 µg/mL (≈ 6.06 to 17 µM)

Question: What about the IC50 (PC-3 [2]) of the same molecule?
Answer: 2.5 to 7 µg/mL (≈ 6.06 to 17 µM)

Question: With COc1ccc(-c2nn(-c3ccccc3)cc2-c2nnn(CC(=O)O)n2)cc1 as the molecule, how does the IC50 (PC-3 [3]) read?
Answer: 7.23 to 48.3 µM

Question: What about the IC50 (HT-29) of the same molecule?
Answer: 7.23 to 48.3 µM

Question: For O=C(O)c1cn(C2CC2)c2cc(N3CCN(C(=O)CCSc4nnnn4-c4ccc(Br)cc4)CC3)c(F)cc2c1=O, which GI50 (MDA-MB-231 [4]) is on record?
Answer: 0.066 to 1.3 µM

Question: And the GI50 (PANC-1)?
Answer: 0.066 to 1.3 µM

Question: What about the GI50 (SiHa) of the same molecule?
Answer: 0.066 to 1.3 µM

Question: Which results are given for NC1=C(c2nnn[nH]2)C(c2ccccc2Cl)c2c(ccc3ccccc23)O1 (centres undefined)?
Answer: IC50 (Caco-2): 15 to 87 µM; IC50 (SK-BR-3): 15 to 87 µM; IC50 (HeLa [5]): 15 to 87 µM; IC50 (MCF7 [6]): 15 to 87 µM

Question: What does the source list for CN(C)C(=O)NC(c1ccccc1)n1cnnn1 (centres undefined)?
Answer: GI50 (MCF7 [7]): 8.2 to 41 µM; GI50 (HeLa [8]): 8.2 to 41 µM; GI50 (HepG2 [9]): 8.2 to 41 µM

Question: What does the source list for CCn1cc(C(=O)O)c(=O)c2cnc(N3CCN(C(=O)CCSc4nnnn4-c4ccc(C(F)(F)F)cc4)CC3)nc21?
Answer: GI50 (MDA-MB-231 [4]): 0.066 to 1.3 µM; GI50 (PANC-1): 0.066 to 1.3 µM; GI50 (SiHa): 0.066 to 1.3 µM

Question: What does the source list for CCc1cc2c(cc1O)CC[C@@H]1[C@@H]2CC[C@]2(C)[C@@H](Cc3nnn(C)n3)CC[C@@H]12?
Answer: GI50 (MCF7 [10]): 0.8 to 47 µM; GI50 (MDA-MB-231 [11]): 0.8 to 47 µM; GI50 (DU-145): 0.8 to 47 µM

Question: How did the IC50 (HCT-116 [1]) turn out when COc1cc(/C=C/C(=O)c2ccc(Cl)cc2)ccc1Oc1nnnn1-c1ccccc1 was run?
Answer: 2.5 to 7 µg/mL (≈ 5.78 to 16.2 µM)

Question: What about the IC50 (PC-3 [2]) of the same molecule?
Answer: 2.5 to 7 µg/mL (≈ 5.78 to 16.2 µM)

Question: COc1cc(/C=C/C(=O)c2ccc(F)cc2)ccc1Oc1nnnn1-c1ccccc1 was tested. Which IC50 (HCT-116 [1]) did it give?
Answer: 2.5 to 7 µg/mL (≈ 6 to 16.8 µM)

Question: What about the IC50 (PC-3 [2]) of the same molecule?
Answer: 2.5 to 7 µg/mL (≈ 6 to 16.8 µM)

Question: How did the IC50 (Caco-2) turn out when NC1=C(c2nnn[nH]2)C(c2ccccc2F)c2c(ccc3ccccc23)O1 (centres undefined) was run?
Answer: 15 to 87 µM

Question: What about the IC50 (SK-BR-3) of the same molecule?
Answer: 15 to 87 µM

Question: And the IC50 (HeLa [5])?
Answer: 15 to 87 µM

Question: And the IC50 (MCF7 [6])?
Answer: 15 to 87 µM

Question: Which results are given for CCc1cc2c(cc1OS(N)(=O)=O)CC[C@@H]1[C@@H]2CC[C@]2(C)[C@@H](Cc3nnn(C)n3)CC[C@@H]12?
Answer: GI50 (MCF7 [10]): 0.8 to 47 µM; GI50 (MDA-MB-231 [11]): 0.8 to 47 µM; GI50 (DU-145): 0.8 to 47 µM

Question: Which results are given for NC(=S)NNC(c1ccc(O)cc1)n1cnnn1 (centres undefined)?
Answer: GI50 (MCF7 [7]): 5.2 to 29.8 µM; GI50 (HeLa [8]): 5.2 to 29.8 µM; GI50 (HepG2 [9]): 5.2 to 29.8 µM

Question: How did the IC50 (Caco-2) turn out when CCc1ccc(C2C(c3nnn[nH]3)=C(N)Oc3ccc4ccccc4c32)cc1 (centres undefined) was run?
Answer: 15 to 87 µM

Question: What about the IC50 (SK-BR-3) of the same molecule?
Answer: 15 to 87 µM

Question: What about the IC50 (HeLa [5]) of the same molecule?
Answer: 15 to 87 µM

Question: What about the IC50 (MCF7 [6]) of the same molecule?
Answer: 15 to 87 µM

Question: O=C(O)Cn1nnc(-c2cn(-c3ccccc3)nc2-c2ccccc2Cl)n1 was tested. Which IC50 (PC-3 [3]) did it give?
Answer: 6.43 to 18.2 µM

Question: And the IC50 (HT-29)?
Answer: 6.43 to 18.2 µM

Question: Which results are given for CCc1cc2c(cc1OS(N)(=O)=O)CC[C@@H]1[C@@H]2CC[C@]2(C)[C@@H](Cc3nnnn3C)CC[C@@H]12?
Answer: GI50 (MCF7 [10]): 0.34 to 0.55 µM; GI50 (MDA-MB-231 [11]): 0.34 to 0.55 µM; GI50 (DU-145): 0.34 to 0.55 µM

Question: COc1ccc(OC)c(C2C(c3nnn[nH]3)=C(N)Oc3ccc4ccccc4c32)c1 (centres undefined) was tested. Which IC50 (Caco-2) did it give?
Answer: 15 to 87 µM

Question: And the IC50 (SK-BR-3)?
Answer: 15 to 87 µM

Question: And the IC50 (HeLa [5])?
Answer: 15 to 87 µM

Question: What about the IC50 (MCF7 [6]) of the same molecule?
Answer: 15 to 87 µM

Question: For CN(C)C(=O)NC(c1ccc(O)cc1)n1cnnn1 (centres undefined), which GI50 (MCF7 [7]) is on record?
Answer: 8.2 to 41 µM

Question: And the GI50 (HeLa [8])?
Answer: 8.2 to 41 µM

Question: And the GI50 (HepG2 [9])?
Answer: 8.2 to 41 µM

Question: With NC1=C(c2nnn[nH]2)C(c2ccc(Br)cc2)c2c(ccc3ccccc23)O1 (centres undefined) as the molecule, how does the IC50 (Caco-2) read?
Answer: 15 to 87 µM

Question: And the IC50 (SK-BR-3)?
Answer: 15 to 87 µM

Question: What about the IC50 (HeLa [5]) of the same molecule?
Answer: 15 to 87 µM

Question: And the IC50 (MCF7 [6])?
Answer: 15 to 87 µM

Question: Which results are given for COc1ccc(C(=O)/C=C/c2ccc(Oc3nnnn3-c3ccccc3)cc2)cc1OC?
Answer: IC50 (HCT-116 [1]): 3.7 µg/mL (≈ 8.64 µM); IC50 (PC-3 [2]): 3 µg/mL (≈ 7 µM)

Question: What does the source list for COc1ccc(C(=O)/C=C/c2ccc(Oc3nnnn3-c3ccccc3)c(OC)c2)cc1OC?
Answer: IC50 (HCT-116 [1]): 1.6 µg/mL (≈ 3.49 µM); IC50 (PC-3 [2]): 2.2 µg/mL (≈ 4.8 µM)

Question: What does the source list for O=C(O)Cn1nnc(-c2cn(-c3ccccc3)nc2-c2ccc(Cl)cc2)n1?
Answer: IC50 (PC-3 [3]): 9.83 µM; IC50 (HT-29): 6.43 µM

Question: For NC1=C(c2nnn[nH]2)C(c2ccc(Cl)cc2)c2c(ccc3ccccc23)O1 (centres undefined), which IC50 (Caco-2) is on record?
Answer: 15 to 87 µM

Question: What about the IC50 (SK-BR-3) of the same molecule?
Answer: 15 to 87 µM

Question: What about the IC50 (HeLa [5]) of the same molecule?
Answer: 15 to 87 µM

Question: What about the IC50 (MCF7 [6]) of the same molecule?
Answer: 15 to 87 µM

Question: Which results are given for CCc1cc2c(cc1O)CC[C@@H]1[C@@H]2CC[C@]2(C)[C@@H](Cc3nnn[nH]3)CC[C@@H]12?
Answer: GI50 (MCF7 [10]): 0.34 to 100 µM; GI50 (MDA-MB-231 [11]): 0.34 to 100 µM; GI50 (DU-145): 0.34 to 100 µM

Question: What does the source list for CCc1cc2c(cc1OS(N)(=O)=O)CC[C@@H]1[C@@H]2CC[C@]2(C)[C@@H](Cc3nnn[nH]3)CC[C@@H]12?
Answer: GI50 (MCF7 [10]): 0.34 to 100 µM; GI50 (MDA-MB-231 [11]): 0.34 to 100 µM; GI50 (DU-145): 0.34 to 100 µM

Question: For COc1cccc2c1C(=O)c1c(O)c3c(c(O)c1C2=O)C[C@@](O)(C(=O)CO)C[C@@H]3O[C@H]1C[C@H](N)[C@H](O)[C@H](C)O1 [DOXORUBICIN], which IC50 (HepG2 [12]) is on record?
Answer: 2.85 µM

Question: And the IC50 (HCT-116 [13])?
Answer: 2.6 µM

Question: And the IC50 (HepG2 [14])?
Answer: 4 µg/mL (≈ 7.36 µM)

Question: What about the IC50 (PC-3 [3]) of the same molecule?
Answer: 3.86 µM

Question: What about the IC50 (HT-29) of the same molecule?
Answer: 2.24 µM

Question: Which IC50 (HCT-116 [1]) does the source give for O=c1[nH]cc(F)c(=O)[nH]1 [FLUOROURACIL] here?
Answer: 17.3 µg/mL (≈ 133 µM)

Question: And the IC50 (Caco-2)?
Answer: 10 to 17 µM

Question: And the IC50 (SK-BR-3)?
Answer: 10 to 17 µM

Question: What about the IC50 (HeLa [5]) of the same molecule?
Answer: 10 to 17 µM

Question: What about the IC50 (PC-3 [2]) of the same molecule?
Answer: 21.4 µg/mL (≈ 165 µM)

Question: What about the IC50 (MCF7 [6]) of the same molecule?
Answer: 9.74 to 21.4 µg/mL

Question: How did the GI50 (MDA-MB-231 [4]) turn out when CC/C(=C(\c1ccccc1)c1ccc(OCCN(C)C)cc1)c1ccccc1 [TAMOXIFEN] was run?
Answer: 0.24 µM

Question: What about the GI50 (PANC-1) of the same molecule?
Answer: 0.15 µM

Question: What about the GI50 (SiHa) of the same molecule?
Answer: 0.12 µM
